Experimental data from patent US8952024B2, “Herbicidal pyrimidone derivatives” (E I du Pont de Nemours and Company, priority 2009, dated 2015).

Experiments:
Format in all cases: in vivo
[1] = system: Russian thistle (Salsola kali); assay: Test B pre-/postemergence plant response; conditions: Preemergence
Method in brief: (§1)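 Compound in solvent + surfactant applied pre-em (loam/sand) or post-em (plants 2–18 cm, peat medium); greenhouse hold 13–15 days; visual 0–100 control score.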

[2] = system: bermudagrass (Cynodon dactylon); assay: Test B pre-/postemergence plant response
Method in brief: as §1

[3] = system: galium (catchweed bedstraw, Galium aparine); assay: Test B pre-/postemergence plant response; conditions: Preemergence, 125 g ai/ha; scale 0 to 100, 0 no effect, 100 complete control
Method in brief: as §1

[4] = system: morningglory (Ipomoea coccinea); assay: Test B pre-/postemergence plant response
Method in brief: as §1

[5] = system: nightshade (eastern black nightshade, Solanum ptycanthum); assay: Test B pre-/postemergence plant response; conditions: Preemergence
Method in brief: as §1

[6] = system: sunflower (common oilseed sunflower, Helianthus annuus); assay: Test B pre-/postemergence plant response; conditions: Preemergence
Method in brief: as §1

[7] = system: canarygrass (Phalaris minor); assay: Test B postemergence plant response
Method in brief: (§2)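 Plants at the 1- to 4-leaf stage (2 to 18 cm tall), grown in pots of peat moss/vermiculite medium with wetting agent and starter nutrients, received postemergence applications of test chemicals. After 13 to 15 days in a greenhouse, injury was rated visually against untreated controls on a 0 (no effect) to 100 (complete control) scale.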

[8] = system: chickweed (Stellaria media); assay: Test B postemergence plant response
Method in brief: as §2

[9] = system: windgrass (Apera spica-venti); assay: Test B postemergence plant response
Method in brief: as §2

[10] = system: winter barley (Hordeum vulgare); assay: Test B postemergence plant response
Method in brief: as §2

[11] = system: barnyardgrass (Echinochloa crus-galli); assay: Test B flooded paddy test; conditions: for Plant response rating, Barnyardgrass: Flood (flooded paddy test), 13 to 15 days
Method in brief: (§3)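 Post-flood paddy application: compounds are introduced into water 3 cm deep over the soil, reaching plants at the 2-leaf stage. The water level is maintained, and after 13–15 days under greenhouse conditions, response is judged by eye relative to controls, where 100 means complete control.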

[12] = system: ducksalad (Heteranthera limosa); assay: Test B flooded paddy test; conditions: for Plant response rating, Ducksalad: Flood (flooded paddy test), 13 to 15 days
Method in brief: as §3

rice (Oryza sativa) = assay: Test B flooded paddy test; conditions: for Plant response rating, Rice: Flood (flooded paddy test), 13 to 15 days
Method in brief: as §3

[13] = system: umbrella sedge (Cyperus difformis); assay: Test B flooded paddy test; conditions: for Plant response rating, Sedge, Umbrella: Flood (flooded paddy test), 13 to 15 days
Method in brief: as §3

[14] = 31 g ai/ha, scale 0 to 100 (0 no effect, 100 complete control)
[15] = 62 g ai/ha, scale 0 to 100, 0 no effect, 100 complete control
[16] = 125 g ai/ha, scale 0 to 100, 0 no effect, 100 complete control
[17] = 16 g ai/ha, Postemergence, 0 to 100 scale
[18] = 31 g ai/ha, postemergence, scale 0 to 100, 0 is no effect, 100 is complete control
[19] = 62 g ai/ha, postemergence, 0 is no effect, 100 is complete control, 13 to 15 days
[20] = Postemergence, 125 g ai/ha, visual rating after 13 to 15 days, scale 0 (no effect) to 100 (complete control)
[21] = Preemergence, 16 g ai/ha, scale 0 to 100, 0 no effect, 100 complete control
[22] = Preemergence, 31 g ai/ha, scale 0 to 100 (0 no effect, 100 complete control)
[23] = Preemergence, 62 g ai/ha, scale 0 to 100, 0 no effect, 100 complete control
[24] = Preemergence, 125 g ai/ha, scale 0 to 100, 0 no effect, 100 complete control
[25] = 250 g ai/ha, flooded paddy test, visual rating on 0 to 100 scale (0 no effect, 100 complete control) after 13 to 15 days
[26] = 62 g ai/ha, scale of 0 to 100 where 0 is no effect and 100 is complete control
[27] = 125 g ai/ha, scale 0 to 100, 0 is no effect, 100 is complete control
[28] = Flood, 31 g ai/ha, scale 0 to 100 (0 no effect, 100 complete control)

O=C1CCCC(O)=C1C(=O)c1cnc(-c2cccc(Br)c2)n(-c2ccccc2)c1=O [Compound 69]
90: Plant response rating, Bermudagrass [2, 21]
75: Plant response rating, Morningglory [4, 20]
40: Plant response rating, Windgrass [9, 17] | Plant response rating, Flood, Sedge, Umbrella [13, 25]
30: Plant response rating, Flood, Barnyardgrass [11, 25]
100: Plant response rating, Russian Thistle [1, 14] | Plant response rating, Russian Thistle [1, 15] | Plant response rating, Russian Thistle [1, 16] | Plant response rating, Bermudagrass [2, 23] | Plant response rating, Bermudagrass [2, 24]
15: Plant response rating, Barley [10, 20]
25: Plant response rating, Canarygrass [7, 20]
20: Plant response rating, Barnyardgrass [11, 27] | Plant response rating, Flood, Ducksalad [12, 25]
0: Plant response rating, Galium [3] | Plant response rating, Morningglory [4, 21] | Plant response rating, Morningglory [4, 22] | Plant response rating, Morningglory [4, 23] | Plant response rating, Morningglory [4, 24] | Plant response rating, Sunflower [6, 14] | Plant response rating, Sunflower [6, 15] | Plant response rating, Canarygrass [7, 17] | Plant response rating, Canarygrass [7, 18] | Canarygrass plant response rating (0 to 100 scale) [7, 19] | Plant response rating, Barley [10, 17] | Plant response rating, Barnyardgrass [11, 26] | Barnyardgrass plant response rating [11, 28] | Plant response rating, Ducksalad [12, 26] | Plant response rating, Ducksalad [12, 27] | Ducksalad plant response rating [12, 28] | Plant response rating, Flood, Rice (rice (Oryza sativa); [25]) | Plant response rating, Rice (rice (Oryza sativa); [26]) | Plant response rating, Rice (rice (Oryza sativa); [27]) | Rice plant response rating (rice (Oryza sativa); [28]) | Plant response rating, Sedge, Umbrella [13, 26] | Plant response rating, Sedge, Umbrella [13, 27] | Sedge, Umbrella plant response rating [13, 28]
65: Plant response rating, Morningglory [4, 17]
60: Plant response rating, Windgrass [9, 18] | Windgrass plant response rating (0 to 100 scale) [9, 19]
70: Plant response rating, Morningglory [4, 18] | Morningglory plant response rating (0 to 100 scale) [4, 19]
95: Plant response rating, Nightshade [5, 14] | Plant response rating, Chickweed [8, 17]
85: Plant response rating, Bermudagrass [2, 17]
98: Plant response rating, Bermudagrass [2, 18] | Bermudagrass plant response rating (0 to 100 scale) [2, 19] | Plant response rating, Bermudagrass [2, 20] | Plant response rating, Bermudagrass [2, 22] | Plant response rating, Nightshade [5, 15] | Plant response rating, Nightshade [5, 16] | Plant response rating, Chickweed [8, 18] | Chickweed plant response rating (0 to 100 scale) [8, 19] | Plant response rating, Chickweed [8, 20]
5: Plant response rating, Sunflower [6, 16] | Plant response rating, Barley [10, 18] | Barley plant response rating (0 to 100 scale) [10, 19]
80: Plant response rating, Nightshade ([5]; 16 g ai/ha, scale 0 to 100, 0 no effect, 100 complete control) | Plant response rating, Windgrass [9, 20]
